System: SU-DHL10 cells
Test: RT2 Glucocorticoid signaling PCR array, SU-DHL10 (SUDHL10) cell line (Table 4d)
Assay type: cell-based
Conditions: SUDHL10, 4 days, vs DMSO

For CCN(c1cc(-c2ccc(CN3CCOCC3)cc2)cc(C(=O)NCc2c(C)cc(C)[nH]c2=O)c1C)C1CCOCC1 [Compound 44], which “AFF1 ΔΔCT” value is on record?
Its value is 0.650.

What about the “AMPD3 ΔΔCT” value of the same molecule?
The value was −0.556.

What about the “ANGPTL4 ΔΔCT” value of the same molecule?
The value was 0.615.

What about the “ANXA4 ΔΔCT” value of the same molecule?
The value was −2.475.

And the “BCL6 ΔΔCT” value?
The value was 0.640.

What about the “CEBPB ΔΔCT” value of the same molecule?
Its value is 3.019.

What about the “CREB1 ΔΔCT” value of the same molecule?
Its value is −0.051.

And the “CREB3L4 ΔΔCT” value?
The value was 0.806.

What about the “CREB3 ΔΔCT” value of the same molecule?
Its value is 0.421.

And the “CYB561 ΔΔCT” value?
Its value is −2.399.

What about the “DUSP1 ΔΔCT” value of the same molecule?
The value was 1.099.

What about the “EHD3 ΔΔCT” value of the same molecule?
Its value is −0.855.

And the “FK8PS ΔΔCT” value?
Its value is 0.042.

What about the “FOSL2 ΔΔCT” value of the same molecule?
The value was −0.063.

What about the “GDPD1 ΔΔCT” value of the same molecule?
The value was −1.405.

What about the “HNRPLL ΔΔCT” value of the same molecule?
Its value is 0.071.

And the “KLF9 ΔΔCT” value?
Its value is −1.127.

What about the “KLF13 ΔΔCT” value of the same molecule?
Its value is −1.636.

What about the “NFKBIA ΔΔCT” value of the same molecule?
The value was 0.602.

And the “PDCD7 ΔΔCT” value?
The value was 0.802.

And the “PDP1 ΔΔCT” value?
Its value is 0.016.

What about the “PER1 ΔΔCT” value of the same molecule?
Its value is 0.780.

What about the “PIK3R1 ΔΔCT” value of the same molecule?
The value was 0.831.

And the “PLEKHF1 ΔΔCT” value?
The value was 0.469.

And the “POU2F1 ΔΔCT” value?
Its value is 0.006.

What about the “POU2F2 ΔΔCT” value of the same molecule?
Its value is 0.424.

What about the “RA5A3 ΔΔCT” value of the same molecule?
Its value is 0.385.

What about the “RGS2 ΔΔCT” value of the same molecule?
The value was 0.072.

What about the “RHOB ΔΔCT” value of the same molecule?
Its value is −1.475.

And the “SESN1 ΔΔCT” value?
The value was −1.646.

What about the “SGK1 ΔΔCT” value of the same molecule?
The value was 1.943.

And the “SLC10A6 ΔΔCT” value?
The value was −0.648.

What about the “SLC19A2 ΔΔCT” value of the same molecule?
Its value is −1.413.

What about the “SLC22A5 ΔΔCT” value of the same molecule?
Its value is −1.733.

And the “SNTA1 ΔΔCT” value?
The value was 0.531.

What about the “SPSB1 ΔΔCT” value of the same molecule?
The value was −0.444.

What about the “STAT5A ΔΔCT” value of the same molecule?
The value was 0.384.

And the “TBL1XR1 ΔΔCT” value?
Its value is 0.234.

And the “TNFAIP3 ΔΔCT” value?
Its value is 0.124.

What about the “TSC22D3 ΔΔCT” value of the same molecule?
Its value is 2.709.

And the “USP2 ΔΔCT” value?
The value was 0.070.

What about the “USPS4 ΔΔCT” value of the same molecule?
Its value is −0.064.

And the “VLDLR ΔΔCT” value?
Its value is 4.246.

And the “ZFP36 ΔΔCT” value?
Its value is 0.215.

And the “ZHX3 ΔΔCT” value?
Its value is −1.169.

What about the “ZNF281 ΔΔCT” value of the same molecule?
The value was −0.437.

Which results are given for C[C@]12C=CC(=O)C=C1CC[C@@H]1[C@@H]2[C@@H](O)C[C@@]2(C)[C@H]1CC[C@]2(O)C(=O)CO [Prednisolone, prednisolone]?
AFF1 ΔΔCT: −0.106; AMPD3 ΔΔCT: −0.327; ANGPTL4 ΔΔCT: −0.105; ANXA4 ΔΔCT: −0.001; ATF4 ΔΔCT: 1.570; BCL6 ΔΔCT: 1.067; CEBPB ΔΔCT: 2.427; CREB1 ΔΔCT: 0.028; CREB3L4 ΔΔCT: 1.120; CREB3 ΔΔCT: −0.098; CYB561 ΔΔCT: 0.164; DUSP1 ΔΔCT: −0.719; EHD3 ΔΔCT: −0.272; FK8PS ΔΔCT: −1.599; FOSL2 ΔΔCT: −1.511; GDPD1 ΔΔCT: −0.938; GOT1 ΔΔCT: 0.781; HNRPLL ΔΔCT: 0.492; KLF9 ΔΔCT: −1.904; KLF13 ΔΔCT: −2.191; MT2A ΔΔCT: 1.837; NFKBIA ΔΔCT: 0.069; PDCD7 ΔΔCT: 0.428; PDP1 ΔΔCT: 0.512; PER1 ΔΔCT: −0.675; PIK3R1 ΔΔCT: −0.040; PLEKHF1 ΔΔCT: −0.326; POU2F1 ΔΔCT: −0.060; POU2F2 ΔΔCT: −2.104; RA5A3 ΔΔCT: 0.050; RGS2 ΔΔCT: 1.368; RHOB ΔΔCT: 0.157; SESN1 ΔΔCT: −3.413; SGK1 ΔΔCT: 0.975; SLC10A6 ΔΔCT: −1.545; SLC19A2 ΔΔCT: 1.693; SLC22A5 ΔΔCT: 1.923; SNTA1 ΔΔCT: −0.066; SPSB1 ΔΔCT: −0.629; STAT5A ΔΔCT: 0.381; TBL1XR1 ΔΔCT: 0.105; TNFAIP3 ΔΔCT: 0.950; TSC22D3 ΔΔCT: −1.509; USP2 ΔΔCT: −0.292; USPS4 ΔΔCT: 0.041; VLDLR ΔΔCT: 4.597; ZFP36 ΔΔCT: −0.420; ZHX3 ΔΔCT: 0.027; ZNF281 ΔΔCT: −0.465
